The values that follow come from patent publication US20230240991A1, “PROTEOPHOSPHOLIPOSOMES HAVING HDL-TYPE VESICLES” (priority 2019, published 2023).

The assay concerns intact washed human platelets. Put plainly: [3H]PAF radioligand binding to intact washed human platelets after preincubation with plasma fractions (FIG. 1).

Method: Washed intact human thrombocytes are protected with plasma fractions from healthy volunteers (n=3, means, ±1 S.D.).
The thrombocytes are further preincubated with dialyzed, delipidated plasma proteins (0.36 mg/ml), with purified VLDL-fractions (0.9 mg/ml), with IDL (0.02 mg/ml), with HDL (0.5 mg/ml) or with delipidated HSA (0.25%).
Washed thrombocytes are tested in the presence of thioether-2-acyl-glycero-phosphatidylcholines (500 nM) compared to controls.

For “alkyl-acetyl-sn-glycero-phosphocholines [PAF]”, the “total [3H]PAF binding” value (500 nM unlabeled PAF, n=3, control 22±3 fmol) turned out to be 6±2 fmol per 10^8 cells/ml. Turning to “thioether-2-acyl-glycero-phosphatidylcholines [Thio-GPC]”, the “total binding of [3H]PAF” value (500 nM Thio-GPC, washed thrombocytes, compared to controls) is “do not at all change”.
